Assay results published in PMC10574094, “Discovery of a SHP2 Degrader with In Vivo Anti-Tumor Activity” (Molecules, 2023).

Biological target: T1, full-length SHP2 (1-528) (Homo sapiens, UniProt Q06124)
T1 construct: The SHP2 protein (Aa 1–528) was cloned into a pET-21a(+) vector; His; made in house; host or cells: E. coli BL21(DE3)
T1 sequence (Q06124 1-528): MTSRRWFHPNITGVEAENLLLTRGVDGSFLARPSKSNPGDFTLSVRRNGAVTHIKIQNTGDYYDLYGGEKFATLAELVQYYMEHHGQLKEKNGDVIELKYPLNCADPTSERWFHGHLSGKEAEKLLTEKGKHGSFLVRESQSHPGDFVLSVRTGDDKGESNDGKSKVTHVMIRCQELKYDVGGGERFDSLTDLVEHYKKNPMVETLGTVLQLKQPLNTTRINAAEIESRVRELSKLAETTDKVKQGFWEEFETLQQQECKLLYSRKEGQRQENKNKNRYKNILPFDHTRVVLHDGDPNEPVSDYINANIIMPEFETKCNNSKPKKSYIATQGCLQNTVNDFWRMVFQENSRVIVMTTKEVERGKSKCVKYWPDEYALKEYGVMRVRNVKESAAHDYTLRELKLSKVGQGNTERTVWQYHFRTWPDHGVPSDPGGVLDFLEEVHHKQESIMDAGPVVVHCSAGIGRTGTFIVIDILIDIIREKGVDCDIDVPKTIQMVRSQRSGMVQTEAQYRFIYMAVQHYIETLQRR
Assay: SHP2 allosteric inhibition assay (DiFMUP substrate)
Type: biochemical
Method: The SHP2 protein (Aa 1–528) was cloned into a pET-21a(+) vector. Bacterial BL21(DE3) (Novagen) was used as an expression host, and the induction of protein expression was carried out in LB media with 1 mM IPTG at 18 °C overnight. Cell pellets were stored at −80 °C for subsequent protein purification. Protein purification was conducted at 4 °C. Frozen cell pellets were lysed by sonication in 40 mL cold lysis buffer (50 mM Tris-HCl, pH 8.0, 150 mM NaCl, 5 mM imidazole, and 1 mM PMSF) per liter cell pellet. Cell lysates were clarified by centrifuging for 15 min at 6000 rpm. The supernatant was incubated with HisPur Ni-NTA resin (Thermo Scientific, Waltham, MA, USA) for 2 h, and then packed onto a column and washed with 50 resin volume of buffer A (50 mM Tris-HCl, pH 8.0, 500 mM NaCl, 5 mM imidazole). The HIS-tagged proteins were eluted with Buffer B (50 mM Tris-HCl, pH = 8.0, 500 mM NaCl, 300 mM imidazole,). Pooled HIS-protein-containing fractions were concentrated, loaded onto a HiLoad 26/600 Superdex 75 column (GE Healthcare Biosciences, Piscataway, NJ, USA), and eluted with storage buffer (50 mM Tris-HCl, pH 8.0, 150 mM NaCl, 1 mM DTT, 10% glycerol). Proteins used for inhibition assays were purified using Ni-NTA resin (Qiagen, Hilden, Germany) followed by size exclusion column chromatography (ÄKTA pure, Cytiva, Marlborough, MA, USA) and the purity was determined to be >95% by SDS-PAGE and Coomassie staining. The protein was aliquoted and stored at −80 °C.
The catalytic activity of SHP2 (1-528) was assayed with 6,8-Difluoro-4-Methylumbelliferyl Phosphate (DiFMUP, Invitrogen, cat# D6567) as a substrate in 3,3-Dimethylglutaric acid (DMG) buffer (50 mM DMG, pH 7.0, 1 mM EDTA, 18 mM NaCl, 0.01% Triton X-100) at 25 °C. To determine the IC50 values, the assays were performed in 96-well plates (Corning Costar 3915). Series diluted compounds were incubated with 0.5 nM of SHP2 and 0.5 μM of peptide IRS1_pY1172(dPEG8)pY1222 (sequence H2N-LN(pY)IDLDLV(dPEG8)LST(pY)ASINFQK-amide). After 30 min incubation at room temperature, the substrate DiFMUP was added to the reaction (200 μM final concentration, total reaction volume is […]) and incubated at 25 °C for 10 min. The reaction was then quenched by adding 40 μL of 160 μM bpV(Phen) (Sigma–Aldrich, cat# SML0889) solution. The fluorescence signal was monitored with a CLARIOstar Plus Microplate Spectrophotometer (BMG Labtech) using excitation and emission wavelengths of 340 and 450 nm, respectively. The inhibitordose-response curves were analyzed using normalized IC50 regression curve fitting with control-based normalization. Data were fitted using Prism GraphPad 9.2.0.

Cc1ncsc1-c1ccc([C@H](C)NC(=O)[C@@H]2C[C@@H](O)CN2C(=O)[C@@H](NC(=O)CCCCCCCCCN2CCN(C(=O)CCCCCC3(CN)CCN(c4cnc(Sc5cccc(Cl)c5Cl)c(N)n4)CC3)CC2)C(C)(C)C)cc1 [P9, (2S,4R)-1-((S)-2-(10-(4-(6-(1-(6-amino-5-((2,3-dichlorophenyl)thio)pyrazin-2-yl)-4-(aminomethyl)piperidin-4-yl)hexanoyl)piperazin-1-yl)decanamido)-3,3-dimethylbutanoyl)-4-hydroxy-N-((S)-1-(4-(4-methylthiazol-5-yl)phenyl)ethyl)pyrrolidine-2-carboxamide]
Fold selectivity (SHP2) (Table S3, relative to SHP2): 1
IC50 (full length SHP2, enzymatic assay): 0.095 ± 0.0034 µM
